Source: PubChem BioAssay (NCI)
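At the GI50, growth is halved. The concentration for full growth arrest is given as TGI.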

Key:
Assay in all cases: NCI tumour cell line growth inhibition, 384-well format
786-0 renal = test system: 786-0 renal
A498 renal = test system: A498 renal
A549 NSCLC = test system: A549 NSCLC
ACHN renal = test system: ACHN renal
BT-549 breast = test system: BT-549 breast
CAKI-1 renal = test system: CAKI-1 renal
CCRF-CEM leukemia = test system: CCRF-CEM leukemia
COLO 205 colon = test system: COLO 205 colon
DU-145 prostate = test system: DU-145 prostate
EKVX NSCLC = test system: EKVX NSCLC
HCT-116 colon = test system: HCT-116 colon
HCT-15 colon = test system: HCT-15 colon
HL-60(TB) leukemia = test system: HL-60(TB) leukemia
HOP-62 NSCLC = test system: HOP-62 NSCLC
HOP-92 NSCLC = test system: HOP-92 NSCLC
HS 578T breast = test system: HS 578T breast
HT29 colon = test system: HT29 colon
IGROV1 ovarian = test system: IGROV1 ovarian
K-562 leukemia = test system: K-562 leukemia
KM12 colon = test system: KM12 colon
LOX IMVI melanoma = test system: LOX IMVI melanoma
M14 melanoma = test system: M14 melanoma
MALME-3M melanoma = test system: MALME-3M melanoma
MCF7 breast = test system: MCF7 breast
MDA-MB-435 melanoma = test system: MDA-MB-435 melanoma
MDA-MB-468 breast = test system: MDA-MB-468 breast
MOLT-4 leukemia = test system: MOLT-4 leukemia
NCI-H226 lung = test system: NCI-H226 lung
NCI-H23 lung = test system: NCI-H23 lung
NCI-H322M lung = test system: NCI-H322M lung
NCI-H460 NSCLC = test system: NCI-H460 NSCLC
NCI-H522 lung = test system: NCI-H522 lung
NCI/ADR-RES ovarian = test system: NCI/ADR-RES ovarian
OVCAR-3 ovarian = test system: OVCAR-3 ovarian
OVCAR-4 ovarian = test system: OVCAR-4 ovarian
OVCAR-8 ovarian = test system: OVCAR-8 ovarian
PC-3 prostate = test system: PC-3 prostate
RPMI-8226 leukemia = test system: RPMI-8226 leukemia
RXF 393 renal = test system: RXF 393 renal
SF-268 CNS = test system: SF-268 CNS
SF-295 CNS = test system: SF-295 CNS
SF-539 CNS = test system: SF-539 CNS
SK-MEL-2 melanoma = test system: SK-MEL-2 melanoma
SK-MEL-28 melanoma = test system: SK-MEL-28 melanoma
SK-MEL-5 melanoma = test system: SK-MEL-5 melanoma
SK-OV-3 ovarian = test system: SK-OV-3 ovarian
SN12C renal = test system: SN12C renal
SNB-19 CNS = test system: SNB-19 CNS
SNB-75 CNS = test system: SNB-75 CNS
SW-620 colon = test system: SW-620 colon
TK-10 renal = test system: TK-10 renal
U251 glioblastoma = test system: U251 glioblastoma
UACC-257 melanoma = test system: UACC-257 melanoma
UACC-62 melanoma = test system: UACC-62 melanoma

In the case of `CCCOC(=O)c1nc(N(CC2CCCCC2)C(=O)NC)sc1/N=C/c1ccccc1`, the GI50 ([…]-0 renal) is reported as 6.22 µM, the TGI (786-0 renal) is reported as 18.7 µM and the GI50 (A498 renal) is reported as 4.1 µM. The TGI (A498 renal) was 14.7 µM, the GI50 (A549 NSCLC) was 9.71 µM and the TGI (A549 NSCLC) was 22 µM. It also gave a GI50 (ACHN renal) of 9.87 µM, a TGI (ACHN renal) of 21.9 µM and a GI50 (BT-549 breast) of 4.02 µM. The TGI (BT-549 breast) was 12.4 µM, the GI50 (CAKI-1 renal) was 5.18 µM and the TGI (CAKI-1 renal) was 18.1 µM. The GI50 (CCRF-CEM leukemia) was 2.03 µM, the TGI (CCRF-CEM leukemia) was 3.76 µM and the GI50 (COLO 205 colon) was 4.56 µM. For the same compound, the TGI (COLO 205 colon) was 16.1 µM, the GI50 (DU-145 prostate) was 12.3 µM and the TGI (DU-145 prostate) was 27.5 µM. It also gave a GI50 (EKVX NSCLC) of 8.12 µM, a TGI (EKVX NSCLC) of 20.7 µM and a GI50 (HCT-116 colon) of 3.2 µM. The TGI (HCT-116 colon) was 9.48 µM, the GI50 (HCT-15 colon) was 2.83 µM and the TGI (HCT-15 colon) was 8.63 µM. For the same compound, the GI50 (HL-60(TB) leukemia) was 1.73 µM, the TGI (HL-60(TB) leukemia) was 3.11 µM and the GI50 (HOP-62 NSCLC) was 2.45 µM. The TGI (HOP-62 NSCLC) was 7.26 µM, the GI50 (HOP-92 NSCLC) was 4.36 µM and the TGI (HOP-92 NSCLC) was 14.6 µM. It also gave a GI50 (HS 578T breast) of 2.22 µM, a TGI (HS 578T breast) of 5.66 µM and a GI50 (HT29 colon) of 2.58 µM. The TGI (HT29 colon) was 6.98 µM, the GI50 (IGROV1 ovarian) was 3.71 µM and the TGI (IGROV1 ovarian) was 14.4 µM. For the same compound, the GI50 (K-562 leukemia) was 3.37 µM, the TGI (K-562 leukemia) was 10.7 µM and the GI50 (KM12 colon) was 3.26 µM. It also gave a TGI (KM12 colon) of 11.8 µM, a GI50 (LOX IMVI melanoma) of 3.83 µM and a TGI (LOX IMVI melanoma) of 11.3 µM. For the same compound, the GI50 (M14 melanoma) was 3.46 µM, the TGI (M14 melanoma) was 10.9 µM and the GI50 (MALME-3M melanoma) was 3.51 µM. It also gave a TGI (MALME-3M melanoma) of 9.53 µM, a GI50 (MCF7 breast) of 2.66 µM and a TGI (MCF7 breast) of 7.98 µM. For the same compound, the GI50 (MDA-MB-435 melanoma) was 1.79 µM, the TGI (MDA-MB-435 melanoma) was 4.03 µM and the GI50 (MDA-MB-468 breast) was 2.13 µM. It also gave a TGI (MDA-MB-468 breast) of 4.05 µM, a GI50 (MOLT-4 leukemia) of 1.76 µM and a TGI (MOLT-4 leukemia) of 3.2 µM. It also gave a GI50 (NCI-H226 lung) of 5.1 µM, a TGI (NCI-H226 lung) of 18.1 µM and a GI50 (NCI-H23 lung) of 3.39 µM. It also gave a TGI (NCI-H23 lung) of 11.4 µM, a GI50 (NCI-H322M lung) of 31.3 µM and a TGI (NCI-H322M lung) greater than 100 µM. It also gave a GI50 (NCI-H460 NSCLC) of 2.56 µM, a TGI (NCI-H460 NSCLC) of 6.26 µM and a GI50 (NCI-H522 lung) of 1.8 µM. The TGI (NCI-H522 lung) was 5.05 µM, the GI50 (NCI/ADR-RES ovarian) was 2.51 µM and the TGI (NCI/ADR-RES ovarian) was 8.09 µM. For the same compound, the GI50 (OVCAR-3 ovarian) was 2.01 µM, the TGI (OVCAR-3 ovarian) was 4.27 µM and the GI50 (OVCAR-4 ovarian) was 2.74 µM. It also gave a TGI (OVCAR-4 ovarian) of 12.5 µM, a GI50 (OVCAR-8 ovarian) of 10.7 µM and a TGI (OVCAR-8 ovarian) of 23.1 µM. It also gave a GI50 (PC-3 prostate) of 3.58 µM, a TGI (PC-3 prostate) of 12.8 µM and a GI50 (RPMI-8226 leukemia) of 1.61 µM. For the same compound, the TGI (RPMI-8226 leukemia) was 3.22 µM, the GI50 (RXF 393 renal) was 2.65 µM and the TGI (RXF 393 renal) was 5.99 µM. It also gave a GI50 (SF-268 CNS) of 5.35 µM, a TGI (SF-268 CNS) of 15.5 µM and a GI50 (SF-295 CNS) of 2.16 µM. For the same compound, the TGI (SF-295 CNS) was 5.51 µM, the GI50 (SF-539 CNS) was 4.85 µM and the TGI (SF-539 CNS) was 16.6 µM. The GI50 (SK-MEL-2 melanoma) was 2.34 µM, the TGI (SK-MEL-2 melanoma) was 4.27 µM and the GI50 (SK-MEL-28 melanoma) was 5.74 µM. For the same compound, the TGI (SK-MEL-28 melanoma) was 16.9 µM, the GI50 (SK-MEL-5 melanoma) was 2.43 µM and the TGI (SK-MEL-5 melanoma) was 11.3 µM. The GI50 (SK-OV-3 ovarian) was 3.49 µM, the TGI (SK-OV-3 ovarian) was 14.7 µM and the GI50 (SN12C renal) was 6.86 µM. For the same compound, the TGI (SN12C renal) was 19.6 µM, the GI50 (SNB-19 CNS) was 5.73 µM and the TGI (SNB-19 CNS) was 17.4 µM. It also gave a GI50 (SNB-75 CNS) of 2.55 µM, a TGI (SNB-75 CNS) of 7.92 µM and a GI50 (SW-620 colon) of 3.5 µM. The TGI (SW-620 colon) was 13.5 µM, the GI50 (TK-10 renal) was 8.53 µM and the TGI (TK-10 renal) was 21.8 µM. The GI50 (U251 glioblastoma) was 7.26 µM, the TGI (U251 glioblastoma) was 21.2 µM and the GI50 (UACC-257 melanoma) was 7.33 µM. For the same compound, the TGI (UACC-257 melanoma) was 29.1 µM, the GI50 (UACC-62 melanoma) was 3.48 µM and the TGI (UACC-62 melanoma) was 14 µM.
